# Read-outs that look alike come from different tables or passages of the source.
# Assays:
# [1] = tested on: Key Broadleaf Weed and Crop Species; test: Post-emergent Test II herbicidal activity (Table 5); format: in vivo; details: post-emergence, 336 h, post-emergent, 14 days after application; for pest or weed control at 70 g/ha: 70 g ai/ha; for pest or weed control at 140 g/ha: 140 g ai/ha
# In short: (§1)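 Injury was rated visually 14 d after treatment on a 0–100% scale against untreated controls. Test compounds, formulated with crop oil concentrate and surfactant and serially diluted down to 1/16× of the top rate, were applied by track sprayer at 187 L/ha onto first- to second-true-leaf seedlings.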
# [2] = tested on: Key Grass and Sedge Weeds as well as Grass Crops; test: Post-emergent Test II herbicidal activity (Table 6); format: in vivo; details: post-emergence, 336 h; for pest or weed control at 70 g/ha: application rate 70 g ai/ha; for pest or weed control at 140 g/ha: application rate 140 g ai/ha
# In short: as §1
# [3] = ABUTH: velvetleaf (Abutilon theophrasti), read-out: Visual Growth Reduction (%) 14 Days After Application ABUTH
# [4] = BRSNN: oilseed-rape, canola (Brassica napus), read-out: Visual Growth Reduction (%) 14 Days After Application BRSNN
# [5] = CHEAL: lambsquarters (Chenopodium album), read-out: Visual Growth Reduction (%) 14 Days After Application CHEAL
# [6] = EPHHL: wild poinsettia (Euphorbia heterophylla), read-out: Visual Growth Reduction (%) 14 Days After Application EPHHL
# [7] = HELAN: sunflower (Helianthus annuus), read-out: Visual Growth Reduction (%) 14 Days After Application HELAN
# [8] = VIOTR: wild pansy (Viola tricolor), read-out: Visual Growth Reduction (%) 14 Days After Application VIOTR
# [9] = Triticum aestivum, TRZSS (wheat), read-out: Visual Growth Reduction (%) 14 Days After Application, TRZSS
# [10] = CYPES: yellow nutsedge (Cyperus esculentus), read-out: Visual Growth Reduction (%) 14 Days After Application, CYPES
# [11] = DIGSA: crabgrass (Digitaria sanguinalis), read-out: Visual Growth Reduction (%) 14 Days After Application, DIGSA
# [12] = ECHCG: barnyardgrass (Echinochloa crus-galli), read-out: Visual Growth Reduction (%) 14 Days After Application, ECHCG
# [13] = ORYSA: rice (Oryza sativa), read-out: Visual Growth Reduction (%) 14 Days After Application, ORYSA
# [14] = SETFA: giant foxtail (Setaria faberi), read-out: Visual Growth Reduction (%) 14 Days After Application, SETFA
# [15] = SORVU: grain sorghum (Sorghum vulgare), read-out: Visual Growth Reduction (%) 14 Days After Application, SORVU
# [16] = ZEAMX: maize, corn (Zea mays), read-out: Visual Growth Reduction (%) 14 Days After Application, ZEAMX
# [17] = AMARE: redroot pigweed (Amaranthus retroflexus), read-out: Visual Growth Reduction (%) 14 Days After Application AMARE
Structure (SMILES),"pest or weed control at 70 g/ha [1, 3]","pest or weed control at 140 g/ha [1, 3]","pest or weed control at 70 g/ha [1, 4]","pest or weed control at 140 g/ha [1, 4]","pest or weed control at 70 g/ha [1, 5]","pest or weed control at 140 g/ha [1, 5]","pest or weed control at 70 g/ha [1, 6]","pest or weed control at 140 g/ha [1, 6]","pest or weed control at 70 g/ha [1, 7]","pest or weed control at 140 g/ha [1, 7]","pest or weed control at 70 g/ha [1, 8]","pest or weed control at 70 g/ha [2, 9]","pest or weed control at 140 g/ha [2, 9]","pest or weed control at 70 g/ha [2, 10]","pest or weed control at 140 g/ha [2, 10]","pest or weed control at 70 g/ha [2, 11]","pest or weed control at 140 g/ha [2, 11]","pest or weed control at 70 g/ha [2, 12]","pest or weed control at 140 g/ha [2, 12]","pest or weed control at 70 g/ha [2, 13]",also measured
C=Cc1c(C(=O)O)nc(-c2ccc(C(F)(F)F)c(F)c2)c(F)c1N [Compound 86],95 to 100%,95 to 100%,75 to 84%,95 to 100%,95 to 100%,95 to 100%,95 to 100%,95 to 100%,95 to 100%,95 to 100%,95 to 100%,0 to 29%,0 to 29%,95 to 100%,95 to 100%,0 to 29%,0 to 29%,75 to 84%,85 to 94%,30 to 44%,"pest or weed control at 140 g/ha [1, 8]: 95 to 100%; pest or weed control at 140 g/ha [2, 13]: 45 to 59%; pest or weed control at 70 g/ha [2, 14]: 0 to 29%; pest or weed control at 140 g/ha [2, 14]: 0 to 29%; pest or weed control at 70 g/ha [2, 15]: 75 to 84%; pest or weed control at 70 g/ha [2, 16]: 60 to 74%; pest or weed control at 140 g/ha [2, 16]: 60 to 74%"
COC(=O)c1nc(-c2ccc(Br)cc2F)cc(N)c1Cl [Compound 93],95 to 100%,95 to 100%,0 to 29%,60 to 74%,85 to 94%,95 to 100%,95 to 100%,95 to 100%,85 to 94%,85 to 94%,30 to 44%,45 to 59%,45 to 59%,95 to 100%,95 to 100%,75 to 84%,95 to 100%,85 to 94%,85 to 94%,0 to 29%,"pest or weed control at 70 g/ha [1, 17]: 95 to 100%; pest or weed control at 140 g/ha [1, 17]: 95 to 100%; pest or weed control at 140 g/ha [2, 13]: 0 to 29%; pest or weed control at 70 g/ha [2, 14]: 75 to 84%; pest or weed control at 140 g/ha [2, 14]: 75 to 84%; pest or weed control at 70 g/ha [2, 15]: 85 to 94%; pest or weed control at 140 g/ha [2, 15]: 95 to 100%; pest or weed control at 70 g/ha [2, 16]: 60 to 74%; pest or weed control at 140 g/ha [2, 16]: 75 to 84%"
"Cc1c(-c2ccc(OC(F)F)cc2)nc(C(=O)O)c(Cl)c1N [Compound 94, 4-Amino-3-chloro-6-(4-(difluoromethoxy)phenyl)-5-methylpicolinic acid]",0 to 29%,0 to 29%,0 to 29%,0 to 29%,85 to 94%,85 to 94%,0 to 29%,0 to 29%,85 to 94%,85 to 94%,0 to 29%,0 to 29%,0 to 29%,0 to 29%,0 to 29%,0 to 29%,0 to 29%,0 to 29%,0 to 29%,0 to 29%,"pest or weed control at 70 g/ha [1, 17]: 0 to 29%; pest or weed control at 140 g/ha [1, 17]: 45 to 59%; pest or weed control at 140 g/ha [1, 8]: 0 to 29%; pest or weed control at 140 g/ha [2, 13]: 0 to 29%; pest or weed control at 70 g/ha [2, 14]: 0 to 29%; pest or weed control at 140 g/ha [2, 14]: 0 to 29%; pest or weed control at 70 g/ha [2, 15]: 0 to 29%; pest or weed control at 140 g/ha [2, 15]: 0 to 29%; pest or weed control at 70 g/ha [2, 16]: 0 to 29%; pest or weed control at 140 g/ha [2, 16]: 0 to 29%"

# Source: patent US9113629B2, “4-amino-6-(4-substituted-phenyl)-picolinates and 6-amino-2-(4-substituted-phenyl)-pyrimidine-4-carboxylates and their use as herbicides” (DOW AGROSCIENCES LLC, priority 2013, dated 2015)
